Measurements from US20260199350A1, “FLAVONES, QUINOLINONES, QUINAZOLINONES, AND AURONES, AND USES IN CK2-MEDIATED DISEASES” (Salk Institute for Biological Studies, priority 2022, published 2026).
Where two headings read alike, the source gives them in different places.

Assays:
[1] = biological target: T1, CK2A2 (Homo sapiens, UniProt P19784); test: Radiometric kinase assay (Eurofins), CK2A2; type: biochemical; settings: read-out: CK2A2 RAD IC50
T1 construct: purchased Eurofins
Description: (§1) • ^1Radiometric kinase assay from Eurofins. Performed in astrocytes with a Promega Lumit IL-6 kit.

[2] = biological target: T2, CK2A1 (Homo sapiens, UniProt P68400); test: Radiometric kinase assay (Eurofins), CK2A1; type: biochemical; settings: read-out: CK2A1 RAD IC50
T2 construct: purchased Eurofins
Description: FIGS. 4A-4F characterize flavones for in vitro and in-cell CK2 inhibition. […] Representative of two independent experiments. […] Nonlinear fit was used to calculate IC50. […] Nonlinear fit was used to calculate IC50. […] Nonlinear fit was used to calculate IC50. […] Normalized to DMSO, data are representative of three independent experiments.
as §1

[3] = tested on: IL-6 secretion; test: IL-6 secretion assay in astrocytes (Promega Lumit IL-6 kit); type: cell-based, human; settings: Homo sapiens, Astrocyte; Table 2; astrocytes; read-out: IL6-Inhib.
Experimental: IL-6 secretion assay. HCAs were plated at 20,000 cells per well in white clear bottom 96-well plates. Two to three days later, media was removed and replaced with media containing 10 ng/mL IL1B and compound dilution series. Five hours later, plates were processed using the Lumit IL-6 Assay Kit (Promega W6030) according to the manufacturer's instructions.
• ^1Radiometric kinase assay from Eurofins. Performed in astrocytes with a Promega Lumit IL-6 kit. A series of halogenated flavones was generated and assayed (Table 3).

T2 sequence (P68400 whole entry): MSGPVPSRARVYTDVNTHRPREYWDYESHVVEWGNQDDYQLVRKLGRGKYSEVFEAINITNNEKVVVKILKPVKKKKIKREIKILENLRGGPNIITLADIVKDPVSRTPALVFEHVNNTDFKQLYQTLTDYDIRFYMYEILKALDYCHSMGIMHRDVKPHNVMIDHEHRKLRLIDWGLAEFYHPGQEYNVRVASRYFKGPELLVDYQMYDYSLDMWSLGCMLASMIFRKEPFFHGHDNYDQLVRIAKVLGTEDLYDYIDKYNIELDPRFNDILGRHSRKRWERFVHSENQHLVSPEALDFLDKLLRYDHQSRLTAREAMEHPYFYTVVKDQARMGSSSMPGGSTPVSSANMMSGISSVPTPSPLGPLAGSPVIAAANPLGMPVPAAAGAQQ
T1 sequence (P19784 whole entry): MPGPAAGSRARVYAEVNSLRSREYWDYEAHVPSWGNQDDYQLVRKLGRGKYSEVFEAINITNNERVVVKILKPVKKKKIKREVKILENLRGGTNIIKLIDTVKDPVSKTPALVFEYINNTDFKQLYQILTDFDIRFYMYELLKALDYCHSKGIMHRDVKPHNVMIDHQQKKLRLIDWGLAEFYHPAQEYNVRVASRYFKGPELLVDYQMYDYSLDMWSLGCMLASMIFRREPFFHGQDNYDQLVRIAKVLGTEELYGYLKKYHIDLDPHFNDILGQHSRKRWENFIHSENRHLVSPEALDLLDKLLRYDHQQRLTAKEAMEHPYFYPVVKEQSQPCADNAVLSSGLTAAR

Row | Structure (SMILES) | IC50 ([1]; Table 12) | IC50 ([2]; Table 12) | IC50 ([1]; Table 8, quinazolinones) | IC50 ([2]; Table 8, quinazolinones) | also measured
1 | COc1ccc2c(c1Br)O/C(=C\c1ccc(O)c(OC)n1)C2=O [Compound 1188A] | 144 nM | 465 nM |  |  | 
2 | COc1cc(/C=C2\Oc3c(ccc(OC)c3Br)C2=O)ncc1O [Compound 1189A] | 149 nM | 117 nM |  |  | 
3 | COc1ccc2c(c1Br)O/C(=C\c1cc(Br)c(O)cn1)C2=O [Compound 1190B] | 46 nM | 184 nM |  |  | 
4 | O=C(O)c1ccc(/C=C2\Oc3c(Br)cccc3C2=O)cc1 [Compound 1210A] | 60 nM | 703 nM |  |  | 
5 | C#Cc1cc(-c2cc(=O)c3cc(Br)c(OC)c(Br)c3o2)ccc1O [Compound 1212A] | 1260 nM | > 5000 nM |  |  | 
6 | O=C1/C(=C/c2ccc(O)c(C3CC3)c2)Oc2c(Br)cccc21 [Compound 1220A] | > 5000 nM | 4450 nM |  |  | 
7 | C#Cc1cc(/C=C2\Oc3c(Br)cc(Br)cc3C2=O)ccc1O [Compound 1224A] | 77 nM | 177 nM |  |  | 
8 | COc1nc(/C=C2\Oc3c(Br)cccc3C2=O)ccc1O [Compound 1226A] | 91 nM | 131 nM |  |  | 
9 | C#Cc1cc(/C=C2\Oc3c(cc(Br)c(OC)c3Br)C2=O)ccc1O [Compound 1229A] | 49 nM | 151 nM |  |  | 
10 | C#Cc1cc(/C=C2\Oc3c(ccc(OC)c3Br)C2=O)ccc1O [Compound 1231A] | 206 nM | 180 nM |  |  | 
11 | COc1cc(/C=C2\Oc3c(Br)cccc3C2=O)ncc1O [Compound 1236B] | 141 nM | 172 nM |  |  | 
12 | O=C1/C(=C/c2cc(Br)c(O)cn2)Oc2c(Br)cccc21 [Compound 1237A] | 57 nM | 67 nM |  |  | 
13 | COc1cc(-c2cc(=O)c3cc(Br)cc(Br)c3o2)ncc1O [JKT.77A] |  |  |  |  | IC50 [3]: 6700 nM; IC50 ([1]; Table 2): 19 nM; IC50 ([2]; Table 2): 21 nM
14 | O=c1cc(-c2ccc(O)c(C(F)(F)F)c2)oc2c(Br)cc(Br)cc12 [JKT.460A] |  |  |  |  | IC50 [3]: 3000 nM; IC50 ([1]; Table 2): 129 nM; IC50 ([2]; Table 2): 609 nM
15 | O=c1cc(-c2cc(F)c(O)c(F)c2)oc2c(Br)cc(Br)cc12 [JKT.461B] |  |  |  |  | IC50 [3]: > 10000 nM; IC50 ([1]; Table 2): 32 nM; IC50 ([2]; Table 2): 76 nM
16 | Cn1c(-c2ccc(O)c(Br)c2)nc2c(Br)cccc2c1=O [JKT.866A] |  |  | > 5000 nM | 4590 nM | 

Row | Structure (SMILES) | IC50 ([1]; Table 12) | IC50 ([2]; Table 12) | IC50 ([1]; Table 8, quinazolinones) | IC50 ([2]; Table 8, quinazolinones) | also measured
17 | Cn1c(-c2ccc(O)c(Cl)c2)nc2c(Br)cccc2c1=O [JKT.870A] |  |  | > 5000 nM | > 5000 nM | 
18 | Cn1c(-c2cc(F)c(O)c(F)c2)nc2c(Br)cccc2c1=O [JKT.873A] |  |  | 649 nM | 566 nM | 
19 | Cn1c(-c2ccc(O)c(C(F)(F)F)c2)nc2c(Br)cc(Br)cc2c1=O [JKT.874D] |  |  | > 5000 nM | > 5000 nM | 
20 | Cn1c(-c2ccc(O)c(C(F)(F)F)c2)nc2c(Br)cccc2c1=O [JKT.875A] |  |  | > 5000 nM | > 5000 nM | 
21 | COc1cc(-c2nc3c(Br)cc(Br)cc3c(=O)n2C)ccc1O [JKT.876A] |  |  | > 5000 nM | > 5000 nM | 
22 | COc1cc(-c2nc3c(Br)cccc3c(=O)n2C)ccc1O [JKT.877A] |  |  | > 5000 nM | > 5000 nM | 
23 | O=c1[nH]c(-c2ccc(O)c(Br)c2)nc2c(Br)nc(Br)cc12 [JKT.880B] |  |  | 242 nM | 95 nM | 
24 | O=c1cc(-c2ccc(O)c(Br)c2)oc2c(Br)nc(Br)cc12 [JKT.909A] |  |  |  |  | IC50 ([1]; Table 4): 6 nM; IC50 ([2]; Table 4): 6 nM
25 | O=c1cc(-c2cc(Br)c(O)cn2)oc2c(Br)cc(Br)cc12 [JKT.923A] |  |  |  |  | IC50 ([1]; Table 4): 8 nM; IC50 ([2]; Table 4): 11 nM
26 | O=c1[nH]c(-c2cc(Br)c(O)cn2)nc2c(Br)cc(Br)cc12 [JKT.932F] |  |  | 99 nM | 107 nM | 
27 | O=c1cc(-c2ccc(O)c(Br)c2)[nH]c2c(Br)cc(Br)cc12 [JKT.944A] |  |  |  |  | IC50 ([1]; Table 6, quinolinones): 123 nM; IC50 ([2]; Table 6, quinolinones): 128 nM
28 | O=c1[nH]c(-c2ccc(O)c(Cl)n2)nc2c(Br)cc(Br)cc12 [JKT.956A] |  |  | 105 nM | 132 nM | 
29 | COc1nc(-c2nc3c(Br)cc(Br)cc3c(=O)[nH]2)ccc1O [JKT.968C] |  |  | 33 nM | 27 nM | 
30 | COc1nc(-c2nc3c(Br)cccc3c(=O)[nH]2)ccc1O [JKT.975A] |  |  | 33 nM | 26 nM | 
31 | O=c1cc(-c2cc(Br)c(O)cn2)oc2c(Br)cccc12 [JKT.980A] |  |  |  |  | IC50 ([1]; Table 4): 55 nM; IC50 ([2]; Table 4): 53 nM
32 | COc1nc(-c2nc3c(Br)cc(Br)cc3c(=O)n2C)ccc1O [JKT.983A] |  |  | 900 nM | 677 nM | 
